Data on 23 compounds can be found in patent US11884676B2, “Substituted pyrimido[1,2-b]pyridazines as positive allosteric modulators of the muscarinic acetylcholine receptor M4” (Vanderbilt University, priority 2020, dated 2024).

pEC50: −log10 of the molar value.

In the experiment the target is T1, Human M4 (Homo sapiens, UniProt P08173).
T1 construct: expressed in transfected cells
T1 sequence (P08173 1-479): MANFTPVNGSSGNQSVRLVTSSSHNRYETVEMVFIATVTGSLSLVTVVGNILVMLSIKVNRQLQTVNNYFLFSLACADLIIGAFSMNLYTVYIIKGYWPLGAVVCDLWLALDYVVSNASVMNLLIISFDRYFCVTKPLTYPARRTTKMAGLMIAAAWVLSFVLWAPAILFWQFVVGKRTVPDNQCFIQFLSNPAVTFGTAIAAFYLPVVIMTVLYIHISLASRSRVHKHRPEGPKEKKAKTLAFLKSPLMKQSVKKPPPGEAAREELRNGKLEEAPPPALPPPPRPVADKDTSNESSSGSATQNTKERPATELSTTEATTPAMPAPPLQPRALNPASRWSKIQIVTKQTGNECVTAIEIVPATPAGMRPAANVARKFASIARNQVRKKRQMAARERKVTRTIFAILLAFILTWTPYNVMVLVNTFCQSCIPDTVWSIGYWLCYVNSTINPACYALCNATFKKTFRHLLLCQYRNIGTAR
Description: mAChR M4 cell-based functional assay (calcium flux, PAM mode). To be noted: hM4-Gqi5 CHO-K1 cells; for pEC50: concentration-dependent increase in the EC20 acetylcholine response; for Emax at 30 µM: CHO-K1, % ACh maximum at 30 μM. Summed up: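 CHO-K1 cells stably co-expressing human M4 and chimeric Gqi5, Fluo-4 loaded; compound added first (11-point, 1:3 CRC), then EC20 acetylcholine at 144 s and EC80 at 230 s. PAM activity read on FDSS as concentration-dependent increase of EC20 ACh calcium response; EC50 and Emax from four-parameter logistic fit.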
(In general: Calcium assays in cells follow changes in intracellular calcium, usually with a dye or a luminescent sensor.)

One may read the pEC50 as the negative decadic logarithm of the EC50, by convention in mol/L. As for `[2H]C1([2H])Oc2ccc(OC3CCN(c4nn5c(=O)ccnc5c(C)c4C4CC4)CC3)cc2OC1([2H])[2H]` [Compound 21, 8-cyclopropyl-7-(4-((2,3-dihydrobenzo[b][1,4]dioxin-6-yl-2,2,3,3-d4)oxy)piperidin-1-yl)-9-methyl-4H-pyrimido[1,2-b]pyridazin-4-one], the pEC50 is 5.68. In addition, the “Human M4 Emax (%)*” value (% ACh maximum at 30 μM) stood at 82%.
What is called Emax is the maximal effect, on the per cent scale that the assay sets. As to `Cc1ccc(OC2CCN(c3nn4c(=O)cc(C)nc4cc3C)CC2)cn1` [Compound 52, 2,8-dimethyl-7-(4-((6-methylpyridin-3-yl)oxy)piperidin-1-yl)-4H-pyrimido[1,2-b]pyridazin-4-one], the Emax at 30 µM is 84% and the pEC50 is 6.77.
For `[2H]C1([2H])Oc2ccc(O[C@H]3CCN(c4nn5c(=O)c(F)c(C)nc5cc4C)C[C@@H]3F)cc2OC1([2H])[2H]` [Compound 38, 7-((3S,4S)-4-((2,3-dihydrobenzo[b][1,4]dioxin-6-yl-2,2,3,3-d4)oxy)-3-fluoropiperidin-1-yl)-3-fluoro-2,8-dimethyl-4H-pyrimido[1,2-b]pyridazin-4-one] the same measures were 107% and 6.68.
For the compound `[2H]C1([2H])Oc2ccc(OC3CCN(c4nn5c(=O)c(C6CC6)cnc5cc4C)CC3)cc2OC1([2H])[2H]` [Compound 30, 3-cyclopropyl-7-(4-((2,3-dihydrobenzo[b][1,4]dioxin-6-yl-2,2,3,3-d4)oxy)piperidin-1-yl)-8-methyl-4H-pyrimido[1,2-b]pyridazin-4-one], the Emax at 30 µM stood at 80% and the negative logarithm of the EC50 (pEC50) is 7.14.
Taken in the same sequence, the figures for `[2H]C1([2H])Oc2ccc(OC3CCN(c4nn5c(=O)c(N6CCC6)cnc5cc4C)CC3)cc2OC1([2H])[2H]` [Compound 35, 3-(azetidin-1-yl)-7-(4-((2,3-dihydrobenzo[b][1,4]dioxin-6-yl-2,2,3,3-d4)oxy)piperidin-1-yl)-8-methyl-4H-pyrimido[1,2-b]pyridazin-4-one] were 114% and 6.82.
Taken in the same sequence, the figures for `[2H]C1([2H])Oc2ccc(OC3CCN(c4nn5c(=O)cc(C(F)F)nc5cc4C)CC3)cc2OC1([2H])[2H]` [Compound 8, 2-(Difluoromethyl)-7-(4-((2,3-dihydrobenzo[b][1,4]dioxin-6-yl-2,2,3,3-d4)oxy)piperidin-1-yl)-8-methyl-4H-pyrimido[1,2-b]pyridazin-4-one] were 76% and 7.72.
Taken in the same sequence, the figures for `[2H]C1([2H])Oc2ccc(OC3CCN(c4nn5c(=O)ccnc5c(C)c4COC)CC3)cc2OC1([2H])[2H]` [Compound 18, 7-(4-((2,3-Dihydrobenzo[b][1,4]dioxin-6-yl-2,2,3,3-d4)oxy)piperidin-1-yl)-8-(methoxymethyl)-9-methyl-4H-pyrimido[1,2-b]pyridazin-4-one] were 90% and 6.79.
Turning to `Cc1ccc(OC2CCN(c3nn4c(=O)ccnc4cc3C)CC2)cn1` [Compound 24, 8-methyl-7-(4-((6-methylpyridin-3-yl)oxy)piperidin-1-yl)-4H-pyrimido[1,2-b]pyridazin-4-one], the maximal response (Emax) at 30 µM is 73% and the pEC50 is 6.11.
`Cc1cc2nccc(=O)n2nc1N1CC[C@H](Oc2ccc3c(c2)OCCO3)C[C@H]1C` [Compound 108, 7-((2R,4S)-4-((2,3-Dihydrobenzo[b][1,4]dioxin-6-yl)oxy)-2-methylpiperidin-1-yl)-8-methyl-4H-pyrimido[1,2-b]pyridazin-4-one]: the maximal effect (Emax) at 30 µM was determined as 99%.
For `[2H]C1([2H])Oc2ccc(O[C@@H]3CCN(c4nn5c(=O)cc(C)nc5cc4C)C[C@H]3F)cc2OC1([2H])[2H]` [Compound 51, 7-((3R,4R)-4-((2,3-dihydrobenzo[b][1,4]dioxin-6-yl-2,2,3,3-d4)oxy)-3-fluoropiperidin-1-yl)-2,8-dimethyl-4H-pyrimido[1,2-b]pyridazin-4-one], the Emax at 30 µM stood at 94% and the negative-log EC50 (pEC50) is 7.80.
For `Cc1cc2nccc(=O)n2nc1N1CC[C@@H](Oc2ccc3c(c2)CCO3)[C@H](F)C1` [Compound 56, 7-((3R,4R)-4-((2,3-dihydrobenzofuran-5-yl)oxy)-3-fluoropiperidin-1-yl)-8-methyl-4H-pyrimido[1,2-b]pyridazin-4-one], the Emax at 30 µM turned out to be 80% and the negative-log EC50 (pEC50) was 6.69.
For `Cc1ccc(OC2CCN(c3nn4c(=O)cc(C(F)F)nc4c(C)c3C)CC2)cn1` [Compound 78, 2-(difluoromethyl)-8,9-dimethyl-7-(4-((6-methylpyridin-3-yl)oxy)piperidin-1-yl)-4H-pyrimido[1,2-b]pyridazin-4-one] the same measures were 95% and 7.12.
In the case of `[2H]C1([2H])CC(Oc2ccc3c(c2)OC([2H])([2H])C([2H])([2H])O3)CC([2H])([2H])N1c1nn2c(=O)ccnc2cc1C` [Compound 137, 7-(4-((2,3-dihydrobenzo[b][1,4]dioxin-6-yl-2,2,3,3-d4)oxy)piperidin-1-yl-2,2,6,6-d4)-8-methyl-4H-pyrimido[1,2-b]pyridazin-4-one], the Emax at 30 µM was 105% and the pEC50 was 7.35.
Take `Cc1cc2nc(C)c(F)c(=O)n2nc1N1CC[C@H](Oc2ccc3c(c2)OCCO3)[C@@H](F)C1` [Compound 37, 7-((3S,4S)-4-((2,3-dihydrobenzo[b][1,4]dioxin-6-yl)oxy)-3-fluoropiperidin-1-yl)-3-fluoro-2,8-dimethyl-4H-pyrimido[1,2-b]pyridazin-4-one]: the maximal response (Emax) at 30 µM was found to be 105% and the negative logarithm of the EC50 (pEC50) was 6.87.
For `[2H]C1([2H])Oc2ccc(OC3CCN(c4nn5c(=O)c(F)c(C)nc5cc4C)CC3)cc2OC1([2H])[2H]` [Compound 15, 7-(4-((2,3-Dihydrobenzo[b][1,4]dioxin-6-yl-2,2,3,3-d4)oxy)piperidin-1-yl)-3-fluoro-2,8-dimethyl-4H-pyrimido[1,2-b]pyridazin-4-one], the Emax at 30 µM turned out to be 80% and the negative-log EC50 (pEC50) is 7.70.
`[2H]C1([2H])Oc2ccc(OC3CCN(c4nn5c(=O)c(C)c(C)nc5cc4C)CC3)cc2OC1([2H])[2H]` [Compound 4, 7-(4-((2,3-Dihydrobenzo[b][1,4]dioxin-6-yl-2,2,3,3-d4)oxy)piperidin-1-yl)-2,3,8-trimethyl-4H-pyrimido[1,2-b]pyridazin-4-one]: the Emax at 30 µM was found to be 90% and the negative logarithm of the EC50 (pEC50) was 7.44.
For `[2H]C1([2H])Oc2ccc(OC3CCN(c4cc(C)c5nccc(=O)n5n4)CC3)cc2OC1([2H])[2H]` [Compound 22, 7-(4-((2,3-dihydrobenzo[b][1,4]dioxin-6-yl-2,2,3,3-d4)oxy)piperidin-1-yl)-9-methyl-4H-pyrimido[1,2-b]pyridazin-4-one] the same measures were 36% and 5.74.
Taken in the same sequence, the figures for `[2H]C1([2H])Oc2ccc(OC3CCN(c4nn5c(=O)cc(C(C)C)nc5c(C)c4C)CC3)cc2OC1([2H])[2H]` [Compound 99, 7-(4-((2,3-dihydrobenzo[b][1,4]dioxin-6-yl-2,2,3,3-d4)oxy)piperidin-1-yl)-2-isopropyl-8,9-dimethyl-4H-pyrimido[1,2-b]pyridazin-4-one] were 90% and 6.88.
For `[2H]C1(Oc2ccc3c(c2)OCCCO3)CCN(c2nn3c(=O)cc(C(F)(F)F)nc3cc2C)CC1` [Compound 64, 7-(4-((3,4-dihydro-2H-benzo[b][1,4]dioxepin-7-yl)oxy)piperidin-1-yl-4-d)-8-methyl-2-(trifluoromethyl)-4H-pyrimido[1,2-b]pyridazin-4-one] the same measures were 104% and 6.76.
In the case of `Cc1c(N2CCC(Oc3ccc4c(c3)OCCO4)CC2)nn2c(=O)ccnc2c1C` [Compound 71, 7-(4-((2,3-dihydrobenzo[b][1,4]dioxin-6-yl)oxy)piperidin-1-yl)-8,9-dimethyl-4H-pyrimido[1,2-b]pyridazin-4-one], the maximal effect (Emax) at 30 µM came out at 95% and the pEC50 is 7.68.
As to `[2H]C1([2H])Oc2cc(OC3CCN(c4nn5c(=O)c(Cl)cnc5cc4C)CC3)cc(C)c2OC1([2H])[2H]` [Compound 27, 3-chloro-8-methyl-7-(4-((8-methyl-2,3-dihydrobenzo[b][1,4]dioxin-6-yl-2,2,3,3-d4)oxy)piperidin-1-yl)-4H-pyrimido[1,2-b]pyridazin-4-one], the maximum response (Emax) at 30 µM came to 79% and the negative logarithm of the EC50 (pEC50) is 6.97.
With `[2H]C1(Oc2ccc3c(c2)OC([2H])([2H])C([2H])([2H])O3)CCN(c2nn3c(=O)c(F)c(C)nc3cc2C)CC1` [Compound 46, 7-(4-((2,3-dihydrobenzo[b][1,4]dioxin-6-yl-2,2,3,3-d4)oxy)piperidin-1-yl-4-d)-3-fluoro-2,8-dimethyl-4H-pyrimido[1,2-b]pyridazin-4-one], the Emax at 30 µM stood at 81% and the pEC50 was 7.66.
Take `Cc1c(N2CCC(Oc3ccc(F)cc3)CC2)nn2c(=O)ccnc2c1C` [Compound 83, 7-(4-(4-fluorophenoxy)piperidin-1-yl)-8,9-dimethyl-4H-pyrimido[1,2-b]pyridazin-4-one]: the maximum response (Emax) at 30 µM was 89% and the pEC50 was 6.73.
